Reference: patent publication US5545639A, “Method of inhibiting transformed cells” (The United States of America as represented by the …, priority 1994, dated 1996)

How the values were obtained:
Assay in all cases: Dose response of growth, tumor cell line
Assay type in all cases: cell-based
[1] = tested on: MALME-3M; details: Homo sapiens, melanoma
Procedure: (§1) Indeed, 70% of the cell lines were shown not only to experience precluded growth, but cell death, when exposed to less then 100 μM of the active ingredient.

[2] = tested on: K-562; details: Homo sapiens, K562, K-562, leukemia
Procedure: as §1

[3] = tested on: SNB-75; details: Homo sapiens, SNB-75, CNS cancer
Procedure: as §1

[4] = tested on: NCI-H522; details: Homo sapiens, NCI-H522, non-small cell lung cancer
Procedure: as §1

[5] = tested on: EKVX; details: Homo sapiens, non-small cell lung cancer
Procedure: as §1

[6] = tested on: IGROVI; details: Homo sapiens, ovarian cancer
Procedure: as §1

[7] = tested on: SK-MEL-2; details: Homo sapiens, SK-MEL-2, melanoma
Procedure: as §1

[8] = tested on: RPMT-8226; details: Homo sapiens, RPMT-8226, leukemia
Procedure: as §1

[9] = tested on: UACC-257; details: Homo sapiens, UACC-257, melanoma
Procedure: as §1

[10] = tested on: UO-31; details: Homo sapiens, UO-31, renal cancer
Procedure: as §1

[11] = tested on: HCT-116; details: Homo sapiens, HCT-116, colon cancer
Procedure: as §1

[12] = tested on: OVCAR-4; details: Homo sapiens, OVCAR-4, ovarian cancer
Procedure: as §1

[13] = tested on: XF 498; details: Homo sapiens, XF498, XF 498, CNS cancer
Procedure: as §1

[14] = tested on: SN12C; details: Homo sapiens, renal cancer
Procedure: as §1

[15] = tested on: HL-60 (TB); details: Homo sapiens, leukemia
Procedure: as §1

[16] = tested on: SW-620; details: Homo sapiens, SW-620, colon cancer
Procedure: as §1

[17] = tested on: UACC-62; details: Homo sapiens, UACC-62, melanoma
Procedure: as §1

[18] = tested on: HOP-18; details: Homo sapiens, HOP-18, non-small cell lung cancer
Procedure: as §1

[19] = tested on: OVCAR-8; details: Homo sapiens, OVCAR-8, ovarian cancer
Procedure: as §1

[20] = tested on: M19-MEL; details: Homo sapiens, melanoma
Procedure: as §1

[21] = tested on: SK-MEL-28; details: Homo sapiens, SK-MEL-28, melanoma
Procedure: as §1

[22] = tested on: MOLT-4; details: Homo sapiens, MOLT-4, leukemia
Procedure: as §1

[23] = tested on: OVCAR-5; details: Homo sapiens, OVCAR-5, ovarian cancer
Procedure: as §1

[24] = tested on: U251; details: Homo sapiens, U-251, U251, CNS cancer
Procedure: as §1

[25] = tested on: MCF7/ADR-RES; details: Homo sapiens, miscellaneous
Procedure: as §1

[26] = read-out: 50% Growth (Relative to Control)
[27] = read-out: No Growth (Relative to Control)

For `ClCc1ccc2ccc3ccc(CCl)nc3c2n1` [2,9-bis(chloromethyl)-1,10-phenanthroline], the IC50 [1, 26] was 1.89 µM, the CC50 ([1]; read-out: 50% Loss (50% kill)) was 6.16 µM and the IC100 [1, 27] was 3.41 µM. It also gave an IC50 [2, 26] of 3.19 µM, a CC50 ([2]; read-out: 50% Loss (50% kill)) of over 100 µM and an IC100 [2, 27] of over 100 µM. For the same molecule, the IC50 [3, 26] was 1.72 µM, the CC50 ([3]; read-out: 50% Loss (50% kill)) was 15.5 µM and the IC100 [3, 27] was 4.53 µM. The IC50 [4, 26] was 1.76 µM, the CC50 ([4]; read-out: 50% Loss (50% kill)) was 6.71 µM and the IC100 [4, 27] was 3.44 µM. The IC50 [5, 26] was 28.1 µM, the CC50 ([5]; read-out: 50% Loss (50% kill)) was over 100 µM and the IC100 [5, 27] was over 100 µM. The IC50 [6, 26] was 1.51 µM, the CC50 ([6]; read-out: 50% Loss (50% kill)) was 6.25 µM and the IC100 [6, 27] was 3.07 µM. The IC50 [7, 26] was 1.77 µM, the CC50 ([7]; read-out: 50% Loss (50% kill)) was 16.6 µM and the IC100 [7, 27] was 4.81 µM. The IC50 [8, 26] was 1.25 µM, the CC50 ([8]; read-out: 50% Loss (50% kill)) was over 100 µM and the IC100 [8, 27] was 36.6 µM. It also gave an IC50 [9, 26] of 0.78 µM, a CC50 ([9]; read-out: 50% Loss (50% kill)) of 5.58 µM and an IC100 [9, 27] of 2.03 µM. It also gave an IC50 [10, 26] of 1.69 µM, a CC50 ([10]; read-out: 50% Loss (50% kill)) of 6.08 µM and an IC100 [10, 27] of 3.21 µM. It also gave an IC50 [11, 26] of 1.8 µM, a CC50 ([11]; read-out: 50% Loss (50% kill)) of 8.31 µM and an IC100 [11, 27] of 3.87 µM. For the same molecule, the IC50 [12, 26] was 3.15 µM, the CC50 ([12]; read-out: 50% Loss (50% kill)) was 34.9 µM and the IC100 [12, 27] was 9.37 µM. The IC50 [13, 26] was 1.72 µM, the CC50 ([13]; read-out: 50% Loss (50% kill)) was over 100 µM and the IC100 [13, 27] was 5.63 µM. The IC50 [14, 26] was 3.35 µM, the CC50 ([14]; read-out: 50% Loss (50% kill)) was over 100 µM and the IC100 [14, 27] was over 100 µM. The IC50 [15, 26] was 1.8 µM, the CC50 ([15]; read-out: 50% Loss (50% kill)) was 23 µM and the IC100 [15, 27] was 4.43 µM. The IC50 [16, 26] was 3.18 µM, the CC50 ([16]; read-out: 50% Loss (50% kill)) was over 100 µM and the IC100 [16, 27] was 14.1 µM. The IC50 [17, 26] was 1.18 µM, the CC50 ([17]; read-out: 50% Loss (50% kill)) was 5.07 µM and the IC100 [17, 27] was 2.45 µM. For the same molecule, the IC50 [18, 26] was 3.02 µM, the CC50 ([18]; read-out: 50% Loss (50% kill)) was 31.2 µM and the IC100 [18, 27] was 9.71 µM. For the same molecule, the IC50 [19, 26] was 6.85 µM, the CC50 ([19]; read-out: 50% Loss (50% kill)) was over 100 µM and the IC100 [19, 27] was over 100 µM. It also gave an IC50 [20, 26] of 1.31 µM, a CC50 ([20]; read-out: 50% Loss (50% kill)) of 5.28 µM and an IC100 [20, 27] of 2.63 µM. The IC50 [21, 26] was 1.35 µM, the CC50 ([21]; read-out: 50% Loss (50% kill)) was 6.5 µM and the IC100 [21, 27] was 2.97 µM. It also gave an IC50 [22, 26] of 1.73 µM, a CC50 ([22]; read-out: 50% Loss (50% kill)) of 9.34 µM and an IC100 [22, 27] of 4.02 µM. It also gave an IC50 [23, 26] of 1.87 µM, a CC50 ([23]; read-out: 50% Loss (50% kill)) of 6.63 µM and an IC100 [23, 27] of 3.52 µM. It also gave an IC50 [24, 26] of 2.06 µM, a CC50 ([24]; read-out: 50% Loss (50% kill)) of 8.11 µM and an IC100 [24, 27] of 4.09 µM. For the same molecule, the IC50 [25, 26] was 1.93 µM, the CC50 ([25]; read-out: 50% Loss (50% kill)) was over 100 µM and the IC100 [25, 27] was 4.48 µM.
